Consider 17 compounds from patent US20050054006A1, “Combinatorial fluorescent library based on the styryl scaffold” (New York University, priority 2003, published 2005).

Entries after “also recorded” stand apart in the source; their conditions may differ.

Series [1] is described as follows: Fluorescence excitation/emission of the styryl dye library compounds. It is filed as physicochemical.
Series [2] relates to UACC-62 human melanoma cells. In words: Organelle localization in live cells by fluorescence microscopy. The conditions noted are these: live UACC-62 cells, fluorescence microscope λex=405, 490, 570 nm; λem>510 nm.

In the case of `Cc1ccnc(-c2cc(C=Cc3ccc(OCc4ccccc4)c(OCc4ccccc4)c3)cc[n+]2C)c1.[I-]` [Compound J12], in series [1] (EX/EM peak no. 1), the “EM(nm)” value came to 560 nm and the “EX(nm)” value was 350-470 nm. Also, the LOCALIZATION entry in series [2] is listed as “VESICLE”.
Take `C[n+]1ccc(C=Cc2ccc3ccccc3c2)c2ccccc21.[I-]` [Compound G33]: in series [1] (EX/EM peak no. 1), the “EM(nm)” value was 550 nm and the “EX(nm)” value is given as 360-470 nm. For the same compound, the LOCALIZATION result in series [2] was “MITO and CYTO”.
With `C[n+]1ccc(C=Cc2c[nH]c3ccccc23)cc1.[I-]` [Compound A24], in series [1] (EX/EM peak no. 1), the “EM(nm)” value worked out at 530 nm and the “EX(nm)” value is 400) nm. Moreover, the LOCALIZATION result in series [2] is “CYTO”.
For `COc1ccc(C=Cc2cc[n+](C)c(-c3cc(C)ccn3)c2)cc1.[I-]` [Compound J10] the same measures were 520 nm, 350-450 nm and “MITO”.
With `COc1ccc2c(ccc(C=Cc3ccc(O)cc3)[n+]2C)c1.[I-]` [Compound I16], the “EX(nm)” value in series [1] (EX/EM peak no. 1) is given as 360 nm. Moreover, in series [1] (EX/EM peak no. 2), the “EM(nm)” value is 610 nm and the “EX(nm)” value is 360-460 nm. Also, the LOCALIZATION entry in series [2] was “VESICLE; also recorded: NUCLEOLI”.
As to `C[n+]1c(C=Cc2cccc3ccccc23)ccc2ccccc21.[I-]` [Compound H32], in series [1] (EX/EM peak no. 1), the “EM(nm)” value amounted to 660 nm and the “EX(nm)” value was 420 nm. In addition, the LOCALIZATION result in series [2] was “MITO and NUCLEOLI”.
As for `O=[N+]([O-])c1ccc(C=Cc2cc[n+](C34CC5CC(CC(C5)C3)C4)cc2)cc1.[Br-]` [Compound B22], in series [1] (EX/EM peak no. 1), the “EM(nm)” value is 600 nm and the “EX(nm)” value is recorded as 410-420 nm. Besides, in series [2], the LOCALIZATION result is on record as “MITO”.
On the same counts, the results for `C[n+]1c(C=Cc2ccc3c(c2)Cc2ccccc2-3)ccc2ccccc21.[I-]` [Compound H28] are 660 nm, 350-500 nm and “NUCLEI”.
On the same counts, the results for `COc1ccc2c(ccc(C=Cc3cc(OC)c(OC)cc3OC)[n+]2C)c1.[I-]` [Compound I38] are 620 nm, 390 nm and “CYTO”.
For `COc1ccc(C=Cc2ccc3ccccc3[n+]2C)c2ccccc12.[I-]` [Compound H14] the same measures were 590 nm, 420-520 nm and “VESICLE”.
On to `COc1ccc(C=Cc2cc[n+](C)c3ccccc23)c2ccccc12.[I-]` [Compound G14], for which, in series [1] (EX/EM peak no. 1), the “EM(nm)” value is 620 nm and the “EX(nm)” value was 480(broad) nm. Moreover, in series [2], the LOCALIZATION entry is on record as “MITO”.
For `Cc1ccnc(-c2cc(C=Cc3ccccc3[N+](=O)[O-])cc[n+]2C)c1.[I-]` [Compound J20] the same measures were 620 nm, 420 nm and “VESICLE”.
On the same counts, the results for `Cc1cccc(C=CC=Cc2ccccc2)[n+]1C.[I-]` [Compound L35] are 510 nm, 420 nm and “MITO”.
On the same counts, the results for `COc1ccc(/C=C/c2cc[n+](C34CC5CC(CC(C5)C3)C4)cc2)cc1OC.[Br-]` [Compound B11] are 540 nm, 340-440 nm and “MITO”.
`C[n+]1ccc(C=Cc2cccc3ccccc23)c2ccccc21.[I-]` [Compound G32]: in series [1] (EX/EM peak no. 1), the “EM(nm)” value is on record as 560 nm and the “EX(nm)” value came to 430 nm. Also, in series [2], the LOCALIZATION result was “MITO”.
Consider `COc1ccc2c(ccc(C=CC=Cc3ccccc3)[n+]2C)c1.[I-]` [Compound I35], for which, in series [1] (EX/EM peak no. 1), the “EM(nm)” value is 580 nm and the “EX(nm)” value is given as 320-360 nm. In addition, the LOCALIZATION result in series [2] is “CYTO”.
Take `COc1ccc2c(ccc(C=Cc3cccc4ccccc34)[n+]2C)c1.[I-]` [Compound I32]: in series [1] (EX/EM peak no. 1), the “EM(nm)” value is reported as 610 nm and the “EX(nm)” value is 360-440 nm. Also, the LOCALIZATION entry in series [2] was “MITO and NUCLEI and NUCLEOLI”.
